Data from publication PMC8824275, “Gastrointestinal Stability and Cytotoxicity of Bacteriocins From Gram-Positive and Gram-Negative Bacteria: A Comparative in vitro Study” (Frontiers in Microbiology, 2022).
“Also recorded” adds a separate entry of the source.

Key:
[1] = tested on: rat erythrocytes; assay: Hemolytic activity; format: cell-based; settings: 45 min, 37°C
Protocol: The experiment was performed after prior approval from the local ethics committee by TransBIOTech laboratory. Hemolytic potential of bacteriocins was evaluated according to [FDA (2005)]. Rat blood was collected into a heparinized tube and added in a 1:1 volume (100 μL) to serially diluted compounds (in 100 μL PBS), in a conical 96-well plate. 10% Triton X-100 and PBS were used as a positive and negative controls, respectively. The plates were sealed and incubated for 45 min at 37°C prior to centrifugation at 2,000 g for 10 min to pellet red blood cells. The supernatant was then transferred into clear 96-well plates and the absorbance was read at 540 nm (hemoglobin). The percentage of hemolysis was calculated as follow, with RBC standing for red blood cells:
%Hemolysis=AbsorbanceofRBCtreatedwithbacteriocins-AbsorbanceofRBCtreatedwithPBS/AbsorbanceofRBCtreatedwithTritonX100-AbsorbanceofRBCtreatedwithPBS

[2] = In vitro simulated GI digestion (INFOGEST, static), stability by RP-HPLC and LC-MS; format: in vitro ADME; settings: 37°C
Protocol: In vitro simulated oral, gastric, and small intestinal digestion was adopted from standardized INFOGEST protocol ([Brodkorb et al., 2019]) in three independent replicates. The initial concentration of bacteriocins was selected in order to have sufficient quantity in the digestion mixture to conduct both activity assay by agar well diffusion and by RP-HPLC for quantification.
The entire digestion procedure was performed at 37°C.
Oral conditions: 5 mL of a 8 mg/mL bacteriocin solution (in water) were mixed with simulated salivary fluid [SSF: KCl 15.1 mM, KH2PO4 3.7 mM, NAHCO3 13.6 mM, MgCl2(H2O)6 0.15 mM, (NH4)2CO3 0.06 mM, HCl 1.1mM, CaCl2 (H2O)2 1.5 mM] in 1:1 (v/v) ratio, and the final solution was incubated for 2 min at 37°C.
Gastric conditions: The sample from the oral condition was diluted in 1:1 (v/v) ratio with simulated gastric fluid [SGF: KCl 6.9 mM, KH2PO4 0.9 mM, NAHCO3 25 mM, NaCl 47.2 mM, MgCl2(H2O)6 0.12 mM, (NH4)2CO3 0.5 mM, HCl 15.6 mM, CaCl2 (H2O)2, 0.15 mM] containing pepsin (2000 U/mL in the gastric mixture), and lipase (60 U/mL in the gastric mixture). […]
Small intestine conditions: Samples from gastric conditions were diluted in 1:1 (v/v) ratio with 20 mL of simulated intestinal fluid[SIF KCl 6.8 mM, KH2PO4 0.8 mM, NAHCO3 85 mM, NaCl 38.4 mM, MgCl2(H2O)6 0.33 Mm, HCl 8.4 mM, CaCl2 (H2O)2, 0.6 mM] containing bile salt (10 mmol/L in the final […] mixture) and pancreatin (100 U/mL in final digestion mixture) to acquire a final volume of 40 mL. […] Bacteriocins in the different samples were analyzed by analytical HPLC-UV and liquid-chromatography mass spectrometry (LC-MS/MS). […]
The digestion mixtures were analyzed by LC-MS/MS on an ultra-high-performance LC system (Ultimate 3000 RSLC, Thermo Fisher Scientific) connected to high-resolution electrospray ionization – quadrupole – time of flight (ESI-Q-TOF) mass spectrometer (Maxis II ETD, Bruker Daltonics). […] Data-dependent LC-MS/MS data were acquired in positive ion mode in the mass range m/z 250–2500, using collision induced dissociation with collision energy calculated from m/z and charge states. […]

SMILES: C=C(NC(=O)[C@@H](NC(=O)[C@H](Cc1c[nH]cn1)NC(=O)[C@@H](NC(=O)[C@H](CO)NC(=O)[C@@H]1CS[C@@H](C)[C@H]2NC(=O)[C@H](C)NC(=O)[C@H](NC(=O)[C@H](CCCCN)NC(=O)[C@H](CCSC)NC(=O)[C@H](CC(N)=O)NC(=O)[C@@H]3CS[C@@H](C)[C@@H](NC(=O)[C@H](CCCCN)NC(=O)[C@@H]4CS[C@@H](C)[C@@H](NC(=O)[C@@H]5CSC[C@@H](NC(=O)/C(=C/C)NC(=O)[C@@H](N)[C@@H](C)CC)C(=O)N[C@@H]([C@@H](C)CC)C(=O)NC(=C)C(=O)N[C@@H](CC(C)C)C(=O)N5)C(=O)N5CCC[C@H]5C(=O)NCC(=O)N4)C(=O)NCC(=O)N[C@@H](C)C(=O)N[C@@H](CC(C)C)C(=O)N[C@@H](CCSC)C(=O)NCC(=O)N3)[C@H](C)SC[C@H](NC2=O)C(=O)N[C@@H](CC(N)=O)C(=O)N1)[C@@H](C)CC)C(C)C)C(=O)N[C@@H](CCCCN)C(=O)O [nisin Z]
- Concentration above which dose-dependent increase in percentage of hemolysis was shown ([1]; 0.4 to 400 μg/mL): higher than 50 μg/mL
- Hemolysis ([1]; at concentrations close to 400 μg/mL): approximately 100%
- Stability in gastric conditions ([2]; SGF with pepsin 2000 U/mL and lipase 60 U/mL, pH 3, 90 min, shaking, RP-HPLC and activity, three independent replicates): good gastric stability
- Stability in small intestinal conditions ([2]; SIF with bile salt 10 mmol/L and pancreatin 100 U/mL, pH 7, 2 h, RP-HPLC and activity, three independent replicates): significantly degraded; also recorded: completely degraded
- Stability in the GI tract (whole simulated digestion) ([2]; oral + gastric + small intestinal conditions): complete degradation
